According to ChEMBL document CHEMBL4507310, “Data for DCP probe A-1211212” (2021):

Tests used:
[1] = biological target: Myosin light chain kinase, smooth muscle (Homo sapiens) (UniProt Q15746); conditions: Compound concentration 1000.0 nM
[2] = biological target: Angiopoietin-1 receptor (Homo sapiens) (UniProt Q02763); conditions: Compound concentration 1000.0 nM
[3] = biological target: T1, Alpha-1B adrenergic receptor (Homo sapiens) (UniProt P35368); assay: Alpha1B (h) Eurofins-Cerep binding assay; parameters: ligand concentration 0.15 nM; conditions: filed as antagonist, Compound concentration 10.0 uM
T1 sequence (whole entry): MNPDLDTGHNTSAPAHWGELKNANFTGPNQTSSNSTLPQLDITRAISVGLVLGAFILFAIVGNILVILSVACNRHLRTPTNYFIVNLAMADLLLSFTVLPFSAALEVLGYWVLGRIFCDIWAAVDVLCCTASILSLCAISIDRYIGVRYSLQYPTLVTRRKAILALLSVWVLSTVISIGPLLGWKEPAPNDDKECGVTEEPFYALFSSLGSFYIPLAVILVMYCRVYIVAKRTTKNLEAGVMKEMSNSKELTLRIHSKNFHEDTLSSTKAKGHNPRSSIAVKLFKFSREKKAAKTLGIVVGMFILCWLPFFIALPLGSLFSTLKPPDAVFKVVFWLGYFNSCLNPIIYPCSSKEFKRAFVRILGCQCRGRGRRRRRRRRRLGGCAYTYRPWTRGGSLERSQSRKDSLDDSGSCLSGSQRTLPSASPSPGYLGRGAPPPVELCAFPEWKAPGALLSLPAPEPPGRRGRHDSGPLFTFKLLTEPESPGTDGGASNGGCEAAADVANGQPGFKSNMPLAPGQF

[4] = biological target: Fibroblast growth factor receptor 2 (Homo sapiens) (UniProt P21802); conditions: Compound concentration 1000.0 nM
[5] = biological target: Casein kinase I isoform gamma-1 (Homo sapiens) (UniProt Q9HCP0); conditions: Compound concentration 1000.0 nM
[6] = test system: Phosphatidylinositol 4,5-bisphosphate 3-kinase catalytic subunit alpha isoform (Homo sapiens), P42336 [I800L]; conditions: Compound concentration 1000.0 nM
[7] = biological target: Calcium/calmodulin-dependent protein kinase type II subunit beta (Homo sapiens) (UniProt Q13554); conditions: Compound concentration 1000.0 nM
[8] = biological target: 5'-AMP-activated protein kinase catalytic subunit alpha-2 (Homo sapiens) (UniProt P54646); conditions: Compound concentration 1000.0 nM
[9] = biological target: Hormonally up-regulated neu tumor-associated kinase (Homo sapiens) (UniProt P57058); conditions: Compound concentration 1000.0 nM
[10] = biological target: Phosphatidylinositol 4-kinase beta (Homo sapiens) (UniProt Q9UBF8); conditions: Compound concentration 1000.0 nM
[11] = biological target: Death-associated protein kinase 1 (Homo sapiens) (UniProt P53355); conditions: Compound concentration 1000.0 nM
[12] = biological target: Serine/threonine-protein kinase 38 (Homo sapiens) (UniProt Q15208); conditions: Compound concentration 1000.0 nM
[13] = biological target: Phosphorylase b kinase regulatory subunit alpha, liver isoform (Homo sapiens) (UniProt P46019); conditions: Compound concentration 1000.0 nM
[14] = biological target: Mitogen-activated protein kinase kinase kinase 7 (Homo sapiens) (UniProt O43318); conditions: Compound concentration 1000.0 nM
[15] = biological target: Receptor-type tyrosine-protein kinase FLT3 (Homo sapiens) (UniProt P36888); conditions: Compound concentration 1000.0 nM
[16] = biological target: Serine/threonine-protein kinase Chk1 (Homo sapiens) (UniProt O14757); conditions: Compound concentration 1000.0 nM
[17] = biological target: Microtubule-associated serine/threonine-protein kinase 1 (Homo sapiens) (UniProt Q9Y2H9); conditions: Compound concentration 1000.0 nM
[18] = biological target: Ephrin type-A receptor 5 (Homo sapiens) (UniProt P54756); conditions: Compound concentration 1000.0 nM
[19] = biological target: Serine/threonine-protein kinase RIO1 (Homo sapiens) (UniProt Q9BRS2); conditions: Compound concentration 1000.0 nM
[20] = biological target: Interleukin-1 receptor-associated kinase 4 (Homo sapiens) (UniProt Q9NWZ3); conditions: Compound concentration 1000.0 nM
[21] = biological target: Tyrosine-protein kinase ABL1 (Homo sapiens) (UniProt P00519); conditions: Compound concentration 1000.0 nM
[22] = biological target: Transient receptor potential cation channel subfamily M member 6 (Homo sapiens) (UniProt Q9BX84); conditions: Compound concentration 1000.0 nM
[23] = biological target: Tyrosine-protein kinase Blk (Homo sapiens) (UniProt P51451); conditions: Compound concentration 1000.0 nM
[24] = biological target: Death-associated protein kinase 2 (Homo sapiens) (UniProt Q9UIK4); conditions: Compound concentration 1000.0 nM
[25] = biological target: RAC-gamma serine/threonine-protein kinase (Homo sapiens) (UniProt Q9Y243); conditions: Compound concentration 1000.0 nM
[26] = biological target: Serine/threonine-protein kinase Sgk3 (Homo sapiens) (UniProt Q96BR1); conditions: Compound concentration 1000.0 nM
[27] = biological target: Mitogen-activated protein kinase 11 (Homo sapiens) (UniProt Q15759); conditions: Compound concentration 1000.0 nM
[28] = biological target: STE20/SPS1-related proline-alanine-rich protein kinase (Homo sapiens) (UniProt Q9UEW8); conditions: Compound concentration 1000.0 nM
[29] = test system: Serine/threonine-protein kinase B-raf (Homo sapiens), P15056 [V600E]; conditions: Compound concentration 1000.0 nM
[30] = biological target: T2, 5-hydroxytryptamine receptor 1A (Homo sapiens) (UniProt P08908); assay: 5-HT1A (h) Eurofins-Cerep binding assay; parameters: ligand concentration 0.5 nM; conditions: filed as agonist, Compound concentration 10.0 uM
T2 sequence (whole entry): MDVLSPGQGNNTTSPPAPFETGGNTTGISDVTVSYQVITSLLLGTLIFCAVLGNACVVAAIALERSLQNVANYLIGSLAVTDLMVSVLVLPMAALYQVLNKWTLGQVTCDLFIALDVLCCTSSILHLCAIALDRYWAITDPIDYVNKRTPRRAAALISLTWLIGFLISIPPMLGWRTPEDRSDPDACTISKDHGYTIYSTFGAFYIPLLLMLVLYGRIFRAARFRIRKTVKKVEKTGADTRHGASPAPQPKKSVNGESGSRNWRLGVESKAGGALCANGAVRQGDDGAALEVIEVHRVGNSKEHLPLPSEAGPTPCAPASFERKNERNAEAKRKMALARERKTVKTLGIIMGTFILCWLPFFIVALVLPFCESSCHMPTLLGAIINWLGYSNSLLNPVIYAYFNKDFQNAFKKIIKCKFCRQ

[31] = biological target: Dual specificity mitogen-activated protein kinase kinase 1 (Homo sapiens) (UniProt Q02750); conditions: Compound concentration 1000.0 nM
[32] = biological target: Platelet-derived growth factor receptor alpha (Homo sapiens) (UniProt P16234); conditions: Compound concentration 1000.0 nM

Chain of Receptor-type tyrosine-protein kinase FLT3 (Homo sapiens) (P36888 whole entry): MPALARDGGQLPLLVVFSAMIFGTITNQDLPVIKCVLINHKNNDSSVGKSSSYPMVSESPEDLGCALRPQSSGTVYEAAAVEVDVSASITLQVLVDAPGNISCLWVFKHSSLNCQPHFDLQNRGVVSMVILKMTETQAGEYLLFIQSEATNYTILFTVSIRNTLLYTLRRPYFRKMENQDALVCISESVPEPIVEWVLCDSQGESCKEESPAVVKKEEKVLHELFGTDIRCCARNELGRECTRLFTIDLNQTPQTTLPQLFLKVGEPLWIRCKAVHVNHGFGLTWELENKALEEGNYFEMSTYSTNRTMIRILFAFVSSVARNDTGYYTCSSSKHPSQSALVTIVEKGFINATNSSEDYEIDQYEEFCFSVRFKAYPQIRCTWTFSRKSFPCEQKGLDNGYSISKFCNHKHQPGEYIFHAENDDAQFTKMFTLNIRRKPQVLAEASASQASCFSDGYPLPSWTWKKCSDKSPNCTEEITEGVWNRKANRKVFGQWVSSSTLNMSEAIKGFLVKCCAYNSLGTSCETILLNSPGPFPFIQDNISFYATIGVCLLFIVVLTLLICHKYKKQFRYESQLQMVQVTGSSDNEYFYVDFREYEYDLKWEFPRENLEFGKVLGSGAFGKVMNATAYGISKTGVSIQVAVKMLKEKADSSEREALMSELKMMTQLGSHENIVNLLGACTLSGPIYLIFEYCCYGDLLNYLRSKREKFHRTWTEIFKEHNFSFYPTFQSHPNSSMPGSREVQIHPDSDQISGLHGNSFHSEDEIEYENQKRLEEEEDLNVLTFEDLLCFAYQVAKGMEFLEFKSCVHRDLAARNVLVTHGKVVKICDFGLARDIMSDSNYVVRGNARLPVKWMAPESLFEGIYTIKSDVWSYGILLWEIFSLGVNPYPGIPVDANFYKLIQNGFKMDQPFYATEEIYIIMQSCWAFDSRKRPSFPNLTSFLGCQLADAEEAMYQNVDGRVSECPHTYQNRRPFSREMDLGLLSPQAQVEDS
Chain of Myosin light chain kinase, smooth muscle (Homo sapiens) (Q15746 whole entry): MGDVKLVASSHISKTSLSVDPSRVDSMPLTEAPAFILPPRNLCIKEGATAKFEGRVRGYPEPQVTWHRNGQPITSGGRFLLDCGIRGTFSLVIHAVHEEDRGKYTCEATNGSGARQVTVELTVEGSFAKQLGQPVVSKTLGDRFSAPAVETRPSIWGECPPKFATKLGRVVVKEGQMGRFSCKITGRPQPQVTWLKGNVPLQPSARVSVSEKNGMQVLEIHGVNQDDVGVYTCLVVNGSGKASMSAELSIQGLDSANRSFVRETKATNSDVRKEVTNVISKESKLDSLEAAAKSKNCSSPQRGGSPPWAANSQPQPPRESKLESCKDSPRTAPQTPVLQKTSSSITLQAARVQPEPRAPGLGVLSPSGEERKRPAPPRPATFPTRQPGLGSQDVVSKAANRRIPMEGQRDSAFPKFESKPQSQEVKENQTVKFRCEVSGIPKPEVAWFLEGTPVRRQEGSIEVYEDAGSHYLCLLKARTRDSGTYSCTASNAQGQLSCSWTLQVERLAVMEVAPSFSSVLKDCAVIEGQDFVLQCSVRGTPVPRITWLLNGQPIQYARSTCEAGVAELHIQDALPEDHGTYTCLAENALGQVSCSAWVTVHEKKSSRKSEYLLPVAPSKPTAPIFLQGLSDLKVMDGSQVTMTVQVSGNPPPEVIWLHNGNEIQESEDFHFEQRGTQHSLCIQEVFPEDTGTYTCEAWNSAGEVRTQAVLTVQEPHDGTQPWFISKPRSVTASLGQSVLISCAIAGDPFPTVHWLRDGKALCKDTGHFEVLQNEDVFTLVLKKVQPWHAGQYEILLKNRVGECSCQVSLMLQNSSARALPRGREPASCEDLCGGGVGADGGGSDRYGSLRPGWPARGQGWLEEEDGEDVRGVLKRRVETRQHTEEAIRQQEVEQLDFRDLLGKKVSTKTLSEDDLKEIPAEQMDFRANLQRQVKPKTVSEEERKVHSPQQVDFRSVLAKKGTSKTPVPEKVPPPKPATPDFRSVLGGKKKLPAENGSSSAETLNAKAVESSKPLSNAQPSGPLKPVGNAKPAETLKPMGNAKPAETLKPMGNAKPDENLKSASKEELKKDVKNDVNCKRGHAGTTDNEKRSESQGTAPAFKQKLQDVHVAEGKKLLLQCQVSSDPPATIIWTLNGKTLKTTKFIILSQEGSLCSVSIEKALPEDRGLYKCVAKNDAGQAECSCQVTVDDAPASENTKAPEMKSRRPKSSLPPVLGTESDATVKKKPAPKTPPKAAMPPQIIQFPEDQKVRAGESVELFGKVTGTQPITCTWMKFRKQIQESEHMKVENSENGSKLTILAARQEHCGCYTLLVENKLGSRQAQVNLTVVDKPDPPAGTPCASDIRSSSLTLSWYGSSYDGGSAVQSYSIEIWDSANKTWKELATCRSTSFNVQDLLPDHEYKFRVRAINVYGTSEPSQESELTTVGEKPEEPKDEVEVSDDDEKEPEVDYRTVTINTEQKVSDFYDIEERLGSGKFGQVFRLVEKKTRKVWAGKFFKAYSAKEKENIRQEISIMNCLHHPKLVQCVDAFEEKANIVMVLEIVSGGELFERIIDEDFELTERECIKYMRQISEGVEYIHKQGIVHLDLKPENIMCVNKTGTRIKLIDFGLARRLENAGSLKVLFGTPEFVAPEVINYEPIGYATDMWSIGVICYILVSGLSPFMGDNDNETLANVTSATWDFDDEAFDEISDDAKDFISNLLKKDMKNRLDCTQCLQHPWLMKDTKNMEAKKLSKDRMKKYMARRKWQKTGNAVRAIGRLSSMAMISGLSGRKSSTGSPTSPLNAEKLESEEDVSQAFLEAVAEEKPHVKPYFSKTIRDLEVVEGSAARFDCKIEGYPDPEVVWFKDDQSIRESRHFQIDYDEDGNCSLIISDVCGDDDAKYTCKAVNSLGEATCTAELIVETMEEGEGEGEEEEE
Chain of Casein kinase I isoform gamma-1 (Homo sapiens) (Q9HCP0 whole entry, looked up, canonical isoform): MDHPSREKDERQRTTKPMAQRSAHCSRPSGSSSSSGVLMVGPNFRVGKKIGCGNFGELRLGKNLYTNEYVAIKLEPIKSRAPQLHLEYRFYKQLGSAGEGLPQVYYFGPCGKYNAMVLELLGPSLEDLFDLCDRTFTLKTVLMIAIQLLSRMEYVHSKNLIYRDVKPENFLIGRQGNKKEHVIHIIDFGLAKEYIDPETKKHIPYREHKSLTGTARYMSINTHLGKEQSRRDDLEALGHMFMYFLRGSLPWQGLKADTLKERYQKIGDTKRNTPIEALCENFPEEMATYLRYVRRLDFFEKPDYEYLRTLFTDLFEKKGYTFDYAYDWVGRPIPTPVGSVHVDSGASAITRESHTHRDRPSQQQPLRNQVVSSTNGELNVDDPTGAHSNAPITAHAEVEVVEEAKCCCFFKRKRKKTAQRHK
Chain of Fibroblast growth factor receptor 2 (Homo sapiens) (P21802 22-821 limits assumed): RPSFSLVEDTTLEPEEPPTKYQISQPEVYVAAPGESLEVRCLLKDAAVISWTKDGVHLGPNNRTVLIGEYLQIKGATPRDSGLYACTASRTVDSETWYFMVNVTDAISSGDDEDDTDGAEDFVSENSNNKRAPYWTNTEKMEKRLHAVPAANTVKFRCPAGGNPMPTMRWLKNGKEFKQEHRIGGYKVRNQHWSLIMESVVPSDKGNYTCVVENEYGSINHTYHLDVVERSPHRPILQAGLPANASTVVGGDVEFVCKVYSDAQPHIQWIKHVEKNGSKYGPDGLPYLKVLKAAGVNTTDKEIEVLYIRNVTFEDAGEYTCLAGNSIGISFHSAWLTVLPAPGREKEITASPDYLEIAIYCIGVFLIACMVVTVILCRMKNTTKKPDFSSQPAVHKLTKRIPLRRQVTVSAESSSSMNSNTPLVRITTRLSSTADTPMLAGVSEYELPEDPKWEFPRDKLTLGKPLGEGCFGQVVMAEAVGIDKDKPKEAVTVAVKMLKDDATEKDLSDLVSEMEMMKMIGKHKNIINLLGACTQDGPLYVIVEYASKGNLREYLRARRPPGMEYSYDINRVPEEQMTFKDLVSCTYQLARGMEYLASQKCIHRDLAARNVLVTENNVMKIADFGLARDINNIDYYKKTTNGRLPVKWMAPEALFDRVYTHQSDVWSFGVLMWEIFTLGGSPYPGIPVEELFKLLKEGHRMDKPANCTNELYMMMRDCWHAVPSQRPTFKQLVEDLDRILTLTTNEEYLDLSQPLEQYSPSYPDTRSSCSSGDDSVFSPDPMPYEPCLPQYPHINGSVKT
Chain of Interleukin-1 receptor-associated kinase 4 (Homo sapiens) (Q9NWZ3 whole entry): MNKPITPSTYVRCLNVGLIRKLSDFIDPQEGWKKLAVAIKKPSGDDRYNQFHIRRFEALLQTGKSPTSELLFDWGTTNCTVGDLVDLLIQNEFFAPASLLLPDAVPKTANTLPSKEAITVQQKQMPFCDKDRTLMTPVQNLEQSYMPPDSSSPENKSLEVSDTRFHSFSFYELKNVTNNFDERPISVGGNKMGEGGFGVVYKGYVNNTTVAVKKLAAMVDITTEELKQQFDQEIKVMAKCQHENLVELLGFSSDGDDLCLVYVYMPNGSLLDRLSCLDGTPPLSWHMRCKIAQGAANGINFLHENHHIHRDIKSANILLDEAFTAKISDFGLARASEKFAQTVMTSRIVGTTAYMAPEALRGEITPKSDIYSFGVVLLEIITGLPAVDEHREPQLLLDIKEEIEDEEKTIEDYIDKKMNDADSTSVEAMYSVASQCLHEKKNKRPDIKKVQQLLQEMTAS
Chain of Mitogen-activated protein kinase 11 (Homo sapiens) (Q15759 whole entry): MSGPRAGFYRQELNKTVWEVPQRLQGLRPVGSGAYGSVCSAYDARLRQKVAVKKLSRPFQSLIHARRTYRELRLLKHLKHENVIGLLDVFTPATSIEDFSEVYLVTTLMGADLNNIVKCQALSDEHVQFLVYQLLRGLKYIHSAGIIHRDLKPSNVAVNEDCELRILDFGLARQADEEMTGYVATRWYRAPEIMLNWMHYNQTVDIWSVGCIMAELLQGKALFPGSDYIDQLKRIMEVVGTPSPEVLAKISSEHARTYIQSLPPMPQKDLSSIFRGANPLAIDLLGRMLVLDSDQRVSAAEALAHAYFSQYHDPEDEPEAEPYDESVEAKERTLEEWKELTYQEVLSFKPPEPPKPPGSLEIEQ

SMILES	residual activity [1] [%]	residual activity [2] [%]	% Inhibition of Control Specific Binding (Mean n=2) [3] [%]	residual activity [4] [%]	residual activity [5] [%]	residual activity [6] [%]	residual activity [7] [%]	residual activity [8] [%]	residual activity [9] [%]	residual activity [10] [%]	residual activity [11] [%]	residual activity [12] [%]	residual activity [13] [%]	residual activity [14] [%]	residual activity [15] [%]	residual activity [16] [%]	residual activity [17] [%]	residual activity [18] [%]	residual activity [19] [%]	residual activity [20] [%]	also measured
O=C(NS(=O)(=O)c1ccc(NCC2CCOCC2)c([N+](=O)[O-])c1)c1ccc(N2CCN(Cc3ccc(C(F)(F)F)cc3-c3ccc(Cl)cc3)CC2)cc1Oc1cnc2[nH]ccc2c1 [A-1210227]	65	80	13.5	100	95	100	96	100	100	79	100	90	83	100	100	100	100	76	100	85	residual activity [21]: 100%; residual activity [22]: 89%; residual activity [23]: 84%; residual activity [24]: 85%; residual activity [25]: 89%; residual activity [26]: 92%; residual activity [27]: 78%; residual activity [28]: 89%; residual activity [29]: 83%; % Inhibition of Control Specific Binding (Mean n=2) [30]: -3.4%; residual activity [31]: 92%; residual activity [32]: 100%
CO[C@H]1CC[C@H](CNc2ccc(S(=O)(=O)NC(=O)c3ccc(N4CCN(CC5=C(c6ccc(Cl)cc6)CC(C)(C)CC5)CC4)cc3Oc3cnc4[nH]ccc4c3)cc2[N+](=O)[O-])CC1 [A-1211212]	50	69	15.4	100	100	98	80	93	100	97	73	98	74	100	100	90	96	78	100	83	residual activity [21]: 71%; residual activity [22]: 87%; residual activity [23]: 76%; residual activity [24]: 75%; residual activity [25]: 100%; residual activity [26]: 99%; residual activity [27]: 60%; residual activity [28]: 100%; residual activity [29]: 93%; % Inhibition of Control Specific Binding (Mean n=2) [30]: -2.7%; residual activity [31]: 99%; residual activity [32]: 100%
